# Source: PubChem BioAssay (NCI)
#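 Interpolation was linear, between the two tested concentrations surrounding the appropriate level; five concentrations were tested over 48 hours in 96-well plates. The concentration for 50% growth inhibition is given as GI50. TGI: total growth inhibition.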
# Key:
# Assay in all cases: inhibition of tumour cell growth, NCI panel, 48 h
# SW-620 colon = system: SW-620 colon
# SNB-75 CNS = system: SNB-75 CNS
# HCT-15 colon = system: HCT-15 colon
# UACC-257 melanoma = system: UACC-257 melanoma
# PC-3 prostate = system: PC-3 prostate
# HOP-92 NSCLC = system: HOP-92 NSCLC
# M14 melanoma = system: M14 melanoma
# HT29 colon = system: HT29 colon
# SK-OV-3 ovarian = system: SK-OV-3 ovarian
# MALME-3M melanoma = system: MALME-3M melanoma
# HS 578T breast = system: HS 578T breast
# TK-10 renal = system: TK-10 renal
# HCT-116 colon = system: HCT-116 colon
# SN12C renal = system: SN12C renal
# SK-MEL-28 melanoma = system: SK-MEL-28 melanoma
# DU-145 prostate = system: DU-145 prostate
# SF-539 CNS = system: SF-539 CNS
# T-47D breast = system: T-47D breast
# MDA-MB-435 = system: MDA-MB-435
# MCF7 breast = system: MCF7 breast
# SF-295 CNS = system: SF-295 CNS
# ACHN renal = system: ACHN renal
# EKVX NSCLC = system: EKVX NSCLC
# SR leukemia = system: SR leukemia
# U251 CNS = system: U251 CNS
# NCI/ADR-RES ovarian = system: NCI/ADR-RES ovarian
# COLO 205 colon = system: COLO 205 colon
# HOP-62 NSCLC = system: HOP-62 NSCLC
# HCC-2998 colon = system: HCC-2998 colon
# OVCAR-4 ovarian = system: OVCAR-4 ovarian
# SK-MEL-2 melanoma = system: SK-MEL-2 melanoma
# RPMI-8226 leukemia = system: RPMI-8226 leukemia
# OVCAR-5 ovarian = system: OVCAR-5 ovarian
# MOLT-4 leukemia = system: MOLT-4 leukemia
# MDA-MB-231 breast = system: MDA-MB-231 breast
# HL-60(TB) leukemia = system: HL-60(TB) leukemia
# IGROV1 ovarian = system: IGROV1 ovarian
# CAKI-1 renal = system: CAKI-1 renal
# KM12 colon = system: KM12 colon
# UO-31 renal = system: UO-31 renal
# CCRF-CEM leukemia = system: CCRF-CEM leukemia
# NCI-H226 lung = system: NCI-H226 lung
# OVCAR-3 ovarian = system: OVCAR-3 ovarian
# SNB-19 CNS = system: SNB-19 CNS
# A549 NSCLC = system: A549 NSCLC
# SF-268 CNS = system: SF-268 CNS
# 786-0 renal = system: 786-0 renal
# RXF 393 renal = system: RXF 393 renal
# UACC-62 melanoma = system: UACC-62 melanoma
# K-562 leukemia = system: K-562 leukemia
# BT-549 breast = system: BT-549 breast
# A498 renal = system: A498 renal
# NCI-H460 lung = system: NCI-H460 lung
# SK-MEL-5 melanoma = system: SK-MEL-5 melanoma
# NCI-H522 lung = system: NCI-H522 lung
# OVCAR-8 ovarian = system: OVCAR-8 ovarian
structure (smiles),measurement,setting,value
COc1cccc(N2CCN(c3ncnc4c3[nH]c3ccc(F)cc34)C[C@@H]2C)c1,GI50,SW-620 colon,2270 nM
same,TGI,SW-620 colon,6070 nM
same,GI50,SNB-75 CNS,1690 nM
same,TGI,SNB-75 CNS,3060 nM
same,GI50,HCT-15 colon,1750 nM
same,TGI,HCT-15 colon,4420 nM
same,GI50,UACC-257 melanoma,1880 nM
same,TGI,UACC-257 melanoma,3620 nM
same,GI50,PC-3 prostate,912 nM
same,TGI,PC-3 prostate,3540 nM
same,GI50,HOP-92 NSCLC,2280 nM
same,TGI,HOP-92 NSCLC,6920 nM
same,GI50,M14 melanoma,1360 nM
same,TGI,M14 melanoma,2730 nM
same,GI50,HT29 colon,2790 nM
same,TGI,HT29 colon,9850 nM
same,GI50,SK-OV-3 ovarian,2430 nM
same,TGI,SK-OV-3 ovarian,7470 nM
same,GI50,MALME-3M melanoma,1360 nM
same,TGI,MALME-3M melanoma,3430 nM
same,GI50,HS 578T breast,1770 nM
same,TGI,HS 578T breast,8520 nM
same,GI50,TK-10 renal,2140 nM
same,TGI,TK-10 renal,4420 nM
same,GI50,HCT-116 colon,1220 nM
same,TGI,HCT-116 colon,3130 nM
same,GI50,SN12C renal,1170 nM
same,TGI,SN12C renal,2460 nM
same,GI50,SK-MEL-28 melanoma,1470 nM
same,TGI,SK-MEL-28 melanoma,2910 nM
same,GI50,DU-145 prostate,1380 nM
same,TGI,DU-145 prostate,2670 nM
same,GI50,SF-539 CNS,2270 nM
same,TGI,SF-539 CNS,5650 nM
same,GI50,T-47D breast,310 nM
same,TGI,T-47D breast,1640 nM
same,GI50,MDA-MB-435,1590 nM
same,TGI,MDA-MB-435,3180 nM
same,GI50,MCF7 breast,1530 nM
same,TGI,MCF7 breast,3450 nM
same,GI50,SF-295 CNS,1610 nM
same,TGI,SF-295 CNS,3350 nM
same,GI50,ACHN renal,1490 nM
same,TGI,ACHN renal,3720 nM
same,GI50,EKVX NSCLC,1880 nM
same,TGI,EKVX NSCLC,6160 nM
same,GI50,SR leukemia,2710 nM
same,TGI,SR leukemia,> 100000 nM
same,GI50,U251 CNS,2280 nM
same,TGI,U251 CNS,6080 nM
same,GI50,NCI/ADR-RES ovarian,1210 nM
same,TGI,NCI/ADR-RES ovarian,4350 nM
same,GI50,COLO 205 colon,1430 nM
same,TGI,COLO 205 colon,2800 nM
same,GI50,HOP-62 NSCLC,1230 nM
same,TGI,HOP-62 NSCLC,2760 nM
same,GI50,HCC-2998 colon,2610 nM
same,TGI,HCC-2998 colon,8320 nM
same,GI50,OVCAR-4 ovarian,852 nM
same,TGI,OVCAR-4 ovarian,3860 nM
same,GI50,SK-MEL-2 melanoma,1440 nM
same,TGI,SK-MEL-2 melanoma,2820 nM
same,GI50,RPMI-8226 leukemia,492 nM
same,TGI,RPMI-8226 leukemia,3600 nM
same,GI50,OVCAR-5 ovarian,2280 nM
same,TGI,OVCAR-5 ovarian,6160 nM
same,GI50,MOLT-4 leukemia,999 nM
same,TGI,MOLT-4 leukemia,4650 nM
same,GI50,MDA-MB-231 breast,2270 nM
same,TGI,MDA-MB-231 breast,6470 nM
same,GI50,HL-60(TB) leukemia,1250 nM
same,TGI,HL-60(TB) leukemia,5190 nM
same,GI50,IGROV1 ovarian,1710 nM
same,TGI,IGROV1 ovarian,4670 nM
same,GI50,CAKI-1 renal,1670 nM
same,TGI,CAKI-1 renal,5580 nM
same,GI50,KM12 colon,1220 nM
same,TGI,KM12 colon,2730 nM
same,GI50,UO-31 renal,467 nM
same,TGI,UO-31 renal,1680 nM
same,GI50,CCRF-CEM leukemia,603 nM
same,TGI,CCRF-CEM leukemia,> 100000 nM
same,GI50,NCI-H226 lung,1320 nM
same,TGI,NCI-H226 lung,3030 nM
same,GI50,OVCAR-3 ovarian,1500 nM
same,TGI,OVCAR-3 ovarian,5590 nM
same,GI50,SNB-19 CNS,2550 nM
same,TGI,SNB-19 CNS,6900 nM
same,GI50,A549 NSCLC,1900 nM
same,TGI,A549 NSCLC,5960 nM
same,GI50,SF-268 CNS,1980 nM
same,TGI,SF-268 CNS,6720 nM
same,GI50,786-0 renal,2050 nM
same,TGI,786-0 renal,5240 nM
same,GI50,RXF 393 renal,2240 nM
same,TGI,RXF 393 renal,5450 nM
same,GI50,UACC-62 melanoma,716 nM
same,TGI,UACC-62 melanoma,2120 nM
same,GI50,K-562 leukemia,1120 nM
same,TGI,K-562 leukemia,> 100000 nM
same,GI50,BT-549 breast,343 nM
same,TGI,BT-549 breast,1430 nM
same,GI50,A498 renal,2850 nM
same,TGI,A498 renal,8030 nM
same,GI50,NCI-H460 lung,2530 nM
same,TGI,NCI-H460 lung,7340 nM
same,GI50,SK-MEL-5 melanoma,1310 nM
same,TGI,SK-MEL-5 melanoma,2580 nM
same,GI50,NCI-H522 lung,592 nM
same,TGI,NCI-H522 lung,2020 nM
same,GI50,OVCAR-8 ovarian,762 nM
same,TGI,OVCAR-8 ovarian,2040 nM
